Laboratory results as given in ChEMBL document CHEMBL1201862, “PubChem BioAssay data set” (2004).
Activity calls are given as the source filed them. No stated cut-off is given here; in the data, actives have a measured IC50 and inactives only a lower limit.

Molecular target: T1, Apoptotic protease-activating factor 1 (Homo sapiens, UniProt O14727)
T1 sequence (O14727 whole entry): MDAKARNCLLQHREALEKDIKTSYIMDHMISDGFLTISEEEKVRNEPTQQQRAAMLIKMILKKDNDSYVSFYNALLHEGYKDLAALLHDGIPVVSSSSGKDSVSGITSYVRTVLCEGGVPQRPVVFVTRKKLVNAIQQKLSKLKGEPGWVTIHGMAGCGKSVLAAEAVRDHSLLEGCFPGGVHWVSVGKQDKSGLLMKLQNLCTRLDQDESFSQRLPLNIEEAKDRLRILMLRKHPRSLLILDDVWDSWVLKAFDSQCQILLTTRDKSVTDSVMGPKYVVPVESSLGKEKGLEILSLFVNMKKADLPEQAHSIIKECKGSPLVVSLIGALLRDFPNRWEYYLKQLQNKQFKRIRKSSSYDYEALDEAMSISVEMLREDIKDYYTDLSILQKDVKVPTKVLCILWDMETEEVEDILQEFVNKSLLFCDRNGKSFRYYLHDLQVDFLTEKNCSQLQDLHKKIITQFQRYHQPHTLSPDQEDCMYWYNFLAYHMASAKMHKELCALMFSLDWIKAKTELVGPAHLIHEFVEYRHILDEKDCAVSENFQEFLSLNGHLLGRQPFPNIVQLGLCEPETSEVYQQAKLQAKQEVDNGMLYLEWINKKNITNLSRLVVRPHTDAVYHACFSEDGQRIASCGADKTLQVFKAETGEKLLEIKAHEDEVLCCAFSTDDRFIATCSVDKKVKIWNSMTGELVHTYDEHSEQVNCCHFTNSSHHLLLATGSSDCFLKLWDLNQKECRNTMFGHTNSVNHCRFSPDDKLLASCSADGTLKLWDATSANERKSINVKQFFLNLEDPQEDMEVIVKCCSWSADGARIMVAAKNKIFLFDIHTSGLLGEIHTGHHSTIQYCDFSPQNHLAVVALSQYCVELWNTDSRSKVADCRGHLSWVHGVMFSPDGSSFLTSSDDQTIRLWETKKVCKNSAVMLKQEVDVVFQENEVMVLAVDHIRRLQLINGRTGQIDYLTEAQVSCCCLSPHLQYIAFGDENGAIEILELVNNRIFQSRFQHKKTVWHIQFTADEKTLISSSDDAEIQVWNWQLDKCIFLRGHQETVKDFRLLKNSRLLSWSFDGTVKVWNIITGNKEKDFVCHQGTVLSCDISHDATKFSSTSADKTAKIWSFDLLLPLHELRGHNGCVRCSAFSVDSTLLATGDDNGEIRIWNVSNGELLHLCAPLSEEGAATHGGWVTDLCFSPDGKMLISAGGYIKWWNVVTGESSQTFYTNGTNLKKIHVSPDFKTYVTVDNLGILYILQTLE
Format: functional

`O=C1C=C(N2CCOCC2)c2ccccc2C1=O` was tested, and the IC50 was 1270 nM (active).
